Patent US11649245B2, “Cyclopropylamine compound as LSD1 inhibitor and use thereof” (HELIOEAST PHARMACEUTICAL CO., LTD., priority 2018, dated 2023)
Structures can show the parent of a compound that is named as a salt. Where two headings read alike, the source gives them in different places.

Assays:
[1] = test system: human small cell lung cancer NCI-H1417 xenograft tumor model; test: In vivo pharmacodynamic study on NCI-H1417 subcutaneous xenograft tumor in CB-17 SCID mice; settings: compound 6 hydrochloride 1.5 mg/kg oral once a day, cisplatin 1 mg/kg i.p. twice a week
Method: The purpose of the experiment was to evaluate the in vivo efficacy of the compounds of the present disclosure on subcutaneous xenograft tumor of human small cell lung cancer NCI-H1417 cells in a CB-17 SCID mouse model.
Human small cell lung cancer NCI-H1417 cells (ATCC) were cultured in vitro in a single layer, the culture conditions were RPMI-1640 culture medium supplemented with 10% fetal bovine serum, 37° C. 5% CO2. When the cell saturation reached 80%-90%, the cells were collected, counted, and inoculated.
0.2 mL of 10×10^6 NCI-H1417 cells were subcutaneously inoculated into the right back of each mouse (PBS: Matrigel=1:1). Group administration was started when the average volume reached 100-150 mm^3.
The vehicle used in the experiment was 0.5% methylcellulose solution, the preparation method was: 5 g of methylcellulose was weighed and dissolved in 800 mL ultrapure water, stirred evenly and made up to 1000 mL with ultrapure water. The test substance was dissolved in a solvent and prepared into a uniform solution of a certain concentration, and stored at 4° C.
Cisplatin (Cisplatin, manufacturer Qilu Pharmaceutical Co., Ltd., 10 mg/bottle freeze-dried powder for injection, lot number 7D011A8) was added to 10 mL 0.9% NaCl to make a 1 mg/mL mother liquor, and stored at room temperature and protected from light. The mother liquor was aliquoted into 0.63 mL and stored at room temperature. 5.67 mL 0.9% NaCl was added to one of the 0.63 mL mother liquor to make a 0.1 mg/mL solution.
The experimental indicator is to investigate whether tumor growth was inhibited, delayed, or cured. Tumor diameters were measured with a vernier caliper twice a week. The tumor volume was calculated by the calculation formula: V=0.5a×b^2, a and b respectively represent the long and short diameters of the tumor.
The anti-tumor effect of the compounds was evaluated by TGI (%). TGI (%) can reflect the tumor growth inhibition rate. TGI (%) calculation: TGI (%)=[1-(the average tumor volume at the end of the administration in a treatment group—the average tumor volume at the beginning of the administration in the treatment group)/(the average tumor volume at the end of the treatment of the solvent control group—the average tumor volume at the beginning of the treatment of the solvent control group)]×100%.

human LSD1 = human LSD1 (Homo sapiens, UniProt O60341); test: In vitro enzyme activity screening against LSD1 (HRP/Amplex Red fluorescence coupling enzyme method); type: biochemical; settings: human LSD1, histone H3K4me peptide substrate 20 μM
Method: The purpose of this test was to detect the in vitro inhibitory activity of the compounds against LSD1. The enzyme used in this test was human LSD1, the standard substrate was histone H3K4me peptide (20 μM), the fluorescence coupling enzyme method was used to determine the activity of the compound by combining horseradish peroxidase (HRP) and fluorescent reagent Amplex Red to detect the H2O2 generation as a result of the reaction of LSD1. Compounds were tested in 10-dose IC50 mode with a 3-fold serial dilution starting at 10 μM. The enzyme and […] to start the reaction. Fluorescence detector: Envision, excitation wavelength: Ex/Em=530/590 […]

NCI-H1417 cells = test: Antiproliferation activity on NCI-H1417 cells (CellTiter-Glo, 10 days); type: cell-based, human; settings: incubated for 10 days
Method: Experimental purpose: to detect the antiproliferation activity of the compounds on NCI-H1417 cells.
Experimental materials: RPMI 1640 culture medium, fetal bovine serum, Promega CellTiter-Glo reagent. NCI-H1417 cell line purchased from ATCC. Envision multi-label reader (PerkinElmer).
Experimental method: the compounds were dissolved to 10 mM, then the compounds were diluted 5 times with DMSO in a compound plate, the compounds were diluted 3-fold with Bravo from a starting concentration of 2 mM to the 10th concentration, 250 nL of the solutions were transferred to the upper and lower duplicate wells on a blank 384 cell plate by Echo transfer plate, cell suspension of per well/1000 cells/50 μL was added to the transferred 250 nL DMSO/compound, the compounds were diluted 200-fold, i.e., the initial action concentration was 10 μM. The cell plate was placed in a carbon dioxide incubator and incubated for 10 days. 25 μL of Promega CellTiter-Glo reagent was added to each well on the cell plate and was shaken at room temperature for 10 minutes to stabilize the luminescence signal. Readings were performed by PerkinElmer Envision multi-label analyzer.
Data analysis: the equation (Max-Ratio)/(Max-Min)*100% was used to convert the original data into the inhibition rate, the value of IC50 can be obtained by curve fitting of four-parameters (the 205 mode in XLFITS, iDBS).

HL60 cells = test: Antiproliferation activity on HL60 cells (CellTiter-Glo, 6 days); type: cell-based; settings: incubated for 6 days
Description: Experimental purpose: to detect the antiproliferation activity of the compound to be tested on HL60 cells.
(§1) Experimental materials: RPMI-1640 culture medium, fetal bovine serum, penicillin/streptomycin antibiotics purchased from Wisent. CellTiter-Glo (chemiluminescent cell viability assay reagent) reagents purchased from Promega. HL60 cell line purchased from Nanjing Cobioer Co., Ltd. Nivo multi-label reader (PerkinElmer).
Experimental method: HL60 cells were planted in a white 384-well plate, 40 μL of cell suspension per well, 600 HL60 cells were contained therein. The cell plate was placed in a carbon dioxide incubator for overnight culture. The compounds to be tested were diluted 5-fold with a pipet until the 10th concentration, i.e., diluted from 2 mM to 1.024 nM, double duplicate well experiment was set. 78 μL of the culture medium was added to an intermediate plate, and then 2 μL per well of the serially diluted compounds were transferred to the corresponding positions on the intermediate plate, after mixing, 10 μL per well was transferred to the cell plate. The cell plate was incubated in a carbon dioxide incubator for 6 days. Another cell plate was prepared and the signal value on the day of dosing was read as the maximum value (Max value in the equation below) to participate in the data analysis. 20 μL of chemiluminescent cell viability assay reagent was added to each well of this cell plate, which was incubated at room temperature for 10 minutes to stabilize the luminescence signal. The multi-label reader was used for reading.
(§2) Data analysis: the equation (Sample-Min)/(Max-Min)*100% was used to convert the original data into the inhibition rate, the IC50 value can be obtained by curve fitting of four-parameters (“log(inhibitor) vs. response—Variable slope” mode in GraphPad Prism)).

MV-4-11 cells = test: Antiproliferation activity on MV-4-11 cells (CellTiter-Glo, 6 days); type: cell-based; settings: incubated for 6 days
Description: Experimental purpose: to detect the antiproliferation activity of the compound to be tested on MV-4-11 cells.
as §1, with “IMDM” for “RPMI-1640”, “MV-4-11” for “HL60”, “line was” for “line”, “Multi-Marker Analyzer” for “multi-label reader”
Experimental method: MV-4-11 cells were planted in a white 96-well plate, 80 μL of cell suspension per well, which contained 6000 MV-4-11 cells. The cell plate was placed in a carbon dioxide incubator for overnight culture.
The compounds to be tested were diluted 5-fold with a pipet until the 8th concentration, i.e., diluted from 2 mM to 25.6 nM, double duplicate well experiment was set. 78 μL of the culture medium was added to an intermediate plate, and then 2 μL per well of the serially diluted compounds were transferred to the corresponding positions on the intermediate plate, after mixing, 20 μL per well was transferred to the cell plate. The cell plate was incubated in a carbon dioxide incubator for 6 days. Another cell plate was prepared and the signal value on the day of dosing was read as the maximum value (Max value in the equation below) to participate in the data analysis. 25 μL of the chemiluminescent cell viability assay reagent was added to each well of this cell plate, which was incubated at room temperature for 10 minutes to stabilize the luminescence signal. The multi-label analyzer was used for reading.
as §2

[2] = In vivo pharmacokinetics in CD-1 mice; settings: male CD-1 mice; for Cmax: route not given, read-out: Max concentration Cmax
Method: CD-1 mice (male, 7-9 weeks old, Shanghai Slac)
The rodent pharmacokinetic characteristics after intravenous injection and oral administration of the compounds were tested by standard protocols, in the experiment, the candidate compounds were formulated into clear solutions and administrated to mice via a single intravenous injection and oral administration. The vehicle for intravenous injection and oral administration was a mixed solution of 10% of dimethyl sulfoxide and 90% of 10% hydroxypropyl β cyclodextrin. This project used four male CD-1 mice, two mice were administered intravenously, with a dose of 1 mg/kg, and plasma samples were collected at 0 hour (before administration) and 0.0833, 0.25, 0.5, 1, 2, 4, 8, 24 hours after administration. The other two mice were orally administered by gavage, with a dose of 2 mg/kg, plasma samples were collected at 0 hour (before administration) and 0.25, 0.5, 1, 2, 4, 8, 24 hours after administration, whole blood samples were collected within 24 hours, which were centrifuged at 3000 g for 15 minutes, and the supernatants were separated to obtain plasma samples, 4 times volume of acetonitrile solutions containing internal standard were added to precipitate the protein, the mixtures were centrifuged to obtain the supernatants, the supernatants were added with water of equal volume and centrifuged again to take the supernatant for injection, and the blood drug concentration was quantitatively analyzed by the LC-MS/MS analysis method, and pharmacokinetic parameters were calculated, such as max concentration (Cmax), clearance (CL), half-life (T1/2), volumes of distribution (Vdss), the area under the plasma concentration-time curve (AUC0-last), bioavailability (F) etc.

[3] = oral 2 mg/kg vs intravenous 1 mg/kg
[4] = study doses 1 mg/kg intravenous, 2 mg/kg oral

IC50 (human LSD1) | IC50 (MV-4-11 cells) | Half-life T1/2 (IV) ([2]; IV 1 mg/kg, 1 mg/kg) | The area under the plasma concentration-time curve AUC0-last PO ([2]; PO 2 mg/kg, 2 mg/kg) | Bioavailability F [2, 3] | Clearance CL [2, 4] | Volumes of distribution Vdss [2, 4] | Cmax [2, 4] | IC50 (NCI-H1417 cells; Homo sapiens, NCI-H1417, 240 h) | IC50 (HL60 cells; Homo sapiens, HL-60, 144 h) | SMILES | other results
 |  |  |  |  |  |  |  |  |  | N.N.[Cl][Pt][Cl] [Cisplatin, reference compound] | Tumor volume mean ± SEM (28th day) ([1]; CB-17 SCID mice): 165 ± 22 mm^3; TGI ([1]; tumor growth inhibition rate, 28th day): 85.9%
353 nM | 13.2 nM | 29.4 min | 765 nM·h | 39.1% | 41.8 mL/min/kg | 0.835 L/kg | 919 nM |  |  | O=C(O)c1ccc(CN2CCC3(CC2)CC(N[C@@H]2C[C@H]2c2ccccc2)CO3)cc1 (some centres unmarked) [Hydrochloride of the compound 15] | IC50 (NCI-H1417 cells): 13.1 nM; IC50 (HL60 cells): 13.8 nM
262 nM | 13.7 nM | 34.7 min | 891 nM·h | 36.9% | 33.8 mL/min/kg | 0.88 L/kg | 860 nM | 12.1 nM | 8.46 nM | O=C(O)c1ccc(CN2CCC3(CC2)CC(N[C@@H]2C[C@H]2c2ccccc2)CO3)cc1 (some centres unmarked) [Hydrochloride of the compound 16] | 
242 nM |  |  |  |  |  |  |  | 3.99 nM | 8.99 nM | O=C(O)c1ccc(CN2CCC3(CC2)CC(N[C@@H]2C[C@H]2c2ccccc2)CO3)cn1 (some centres unmarked) [Hydrochloride of the compound 20] | IC50 (MV-4-11 cells; Homo sapiens, MV4-11, 144 h): 9.56 nM; half-life ([2]; male, CD-1, mouse, plasma, iv, 1 mg/kg, IV 1 mg/kg, read-out: Half-life T1/2 (IV) (converted)): 54.3 min; clearance ([2]; male, CD-1, mouse, plasma, iv, 1 mg/kg, study doses 1 mg/kg intravenous, 2 mg/kg oral, read-out: Clearance CL): 19.7 mL/min/kg; Vd ([2]; male, CD-1, mouse, plasma, iv, 1 mg/kg, study doses 1 mg/kg intravenous, 2 mg/kg oral, read-out: Volumes of distribution Vdss): 0.752 L/kg; Cmax ([2]; male, CD-1, mouse, plasma, study doses 1 mg/kg intravenous, 2 mg/kg oral): 714 nM; AUC(0-t) ([2]; male, CD-1, mouse, plasma, po, 2 mg/kg, PO 2 mg/kg, read-out: The area under the plasma concentration-time curve AUC0-last PO): 1.34 µM·h; bioavailability ([2]; male, CD-1, mouse, plasma, po, 2 mg/kg, oral 2 mg/kg vs intravenous 1 mg/kg, read-out: Bioavailability F): 29%
